Converted amounts (≈) assume the structure as drawn.
What was measured:
[1] = Metabolic stability in rat liver microsomes assessed as half life at 1 uM preincubated for 10 mins followed by NADPH addition and measured after 30 mins by LC/MS/MS analysis; format: ADME, Microsome; conditions: time 40 min
[2] = target: T1, Mitogen-activated protein kinase 14 (Homo sapiens, UniProt Q16539); experiment: Inhibition of human recombinant full length GST-tagged p38alpha expressed in Escherichia coli preincubated for 2 hrs followed by ATP addition and measured after 1 hr by Alpha screen assay
T1 sequence (Q16539 whole entry): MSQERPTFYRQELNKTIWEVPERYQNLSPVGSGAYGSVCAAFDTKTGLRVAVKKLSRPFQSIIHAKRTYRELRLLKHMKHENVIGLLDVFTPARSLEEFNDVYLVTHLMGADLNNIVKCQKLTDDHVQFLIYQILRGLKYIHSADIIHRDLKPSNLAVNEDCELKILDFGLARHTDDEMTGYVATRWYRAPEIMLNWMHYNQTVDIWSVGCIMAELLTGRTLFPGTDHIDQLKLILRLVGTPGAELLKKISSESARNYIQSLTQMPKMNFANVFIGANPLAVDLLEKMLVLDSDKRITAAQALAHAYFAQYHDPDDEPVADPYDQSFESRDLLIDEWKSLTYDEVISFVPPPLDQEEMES

[3] = Inhibition of LPS-stimulated TNFalpha release in human PBMC cells preincubated for 1 hr followed by LPS stimulation and measured after 18 hrs; format: functional, cell-based
[4] = target: T2, Mitogen-activated protein kinase 13 (Homo sapiens, UniProt O15264); experiment: Inhibition of recombinant human full length His-tagged p38delta expressed in baculovirus expression system preincubated for 2 hrs followed by ATP addition and measured after 1 hr by Alpha screen assay
T2 sequence (O15264 whole entry): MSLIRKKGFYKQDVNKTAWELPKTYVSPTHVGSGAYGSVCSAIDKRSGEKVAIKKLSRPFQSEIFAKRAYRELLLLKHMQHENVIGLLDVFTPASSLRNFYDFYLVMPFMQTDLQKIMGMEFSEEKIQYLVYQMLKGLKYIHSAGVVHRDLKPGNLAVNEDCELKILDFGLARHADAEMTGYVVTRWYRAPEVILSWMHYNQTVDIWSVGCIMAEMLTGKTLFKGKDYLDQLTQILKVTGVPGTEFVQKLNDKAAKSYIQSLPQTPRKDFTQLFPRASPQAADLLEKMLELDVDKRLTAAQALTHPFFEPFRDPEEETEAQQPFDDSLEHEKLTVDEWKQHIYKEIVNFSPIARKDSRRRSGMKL

[5] = Solubility of the compound at >=1 mg/ml measured after 30 mins by HPLC analysis; format: physicochemical
[6] = Permeability across apical to basolateral side in human Caco-2 cells at 10 uM measured after 60 mins by LC/MS/MS analysis; format: ADME, cell-based; conditions: read-out: permeability
[7] = Protein binding in rat plasma at 10 uM incubated for 4 hrs by LC/MS/MS analysis; format: ADME, cell-free; conditions: read-out: PPB (converted)
[8] = Protein binding in rat lung homogenate at 10 uM incubated for 4 hrs by LC/MS/MS analysis; format: ADME, tissue-based; conditions: read-out: PB (converted)
[9] = Selectivity index, ratio of drug concentration in Sprague-Dawley rat lung homogenate to IC50 for human p38alpha; format: tissue-based; conditions: tissue homogenate
[10] = Drug uptake in Sprague-Dawley rat lung homogenate at 0.03 mg/kg, IT measured after 7 hrs by LC/MS/MS analysis; format: ADME, organism-based; conditions: in vivo, other
[11] = Drug uptake in Sprague-Dawley rat lung homogenate at 0.03 mg/kg, IT measured after 24 hrs by LC/MS/MS analysis; format: ADME, organism-based; conditions: in vivo, other
[12] = Efflux ratio of permeability in human Caco-2 cells at 10 uM measured after 60 mins by LC-MS/MS analysis; format: ADME, cell-based
Rattus norvegicus = experiment: Antiinflammatory activity against LPS-induced Sprague-Dawley rat inflammatory model assessed as inhibition of neutrophil cells release in BALF at 0.3 mg/kg, IT measured after 12 hrs relative to control; format: functional
[13] = Drug concentration in Sprague-Dawley rat lung homogenate at 0.3 mg/kg, IT measured after 24 hrs by LC/MS/MS analysis; format: ADME, organism-based; conditions: read-out: Ct
[14] = Cmax in Sprague-Dawley rat lung homogenate at 0.3 mg/kg, IT measured after 0.8 hrs by LC/MS/MS analysis; format: ADME, organism-based; design: time 0.8 hrs, dose 0.3 mg/kg, route it
[15] = Cmax in Sprague-Dawley rat plasma at 0.3 mg/kg, IT measured after 0.8 hrs by LC/MS/MS analysis; format: ADME, organism-based; design: time 0.8 hrs, dose 0.3 mg/kg, route it
[16] = target: T1, Mitogen-activated protein kinase 14; experiment: Displacement of SKF-86002 from human inactivated p38alpha assessed as dissociation half life incubated for 2 hrs by fluorescence based analysis
[17] = target: Mitogen-activated protein kinase 11 (Homo sapiens, UniProt Q15759); experiment: Inhibition of recombinant human full length His-tagged p38beta expressed in baculovirus expression system preincubated for 2 hrs followed by ATP addition and measured after 1 hr by Alpha screen assay
Chain of Mitogen-activated protein kinase 11 (Q15759 whole entry): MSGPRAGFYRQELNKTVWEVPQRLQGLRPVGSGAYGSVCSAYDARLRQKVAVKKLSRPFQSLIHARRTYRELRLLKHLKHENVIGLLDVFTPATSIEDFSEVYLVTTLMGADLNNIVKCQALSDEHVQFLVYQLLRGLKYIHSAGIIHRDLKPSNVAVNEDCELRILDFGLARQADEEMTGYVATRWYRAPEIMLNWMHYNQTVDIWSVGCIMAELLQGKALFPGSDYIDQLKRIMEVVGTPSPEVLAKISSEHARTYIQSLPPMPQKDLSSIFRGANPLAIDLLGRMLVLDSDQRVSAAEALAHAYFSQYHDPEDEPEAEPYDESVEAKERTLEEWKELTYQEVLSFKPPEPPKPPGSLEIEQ

[18] = target: T3, Mitogen-activated protein kinase 12 (Homo sapiens, UniProt P53778); experiment: Inhibition of recombinant human full length His-tagged p38gamma expressed in baculovirus expression system preincubated for 2 hrs followed by ATP addition and measured after 1 hr by Alpha screen assay
T3 sequence (P53778 whole entry): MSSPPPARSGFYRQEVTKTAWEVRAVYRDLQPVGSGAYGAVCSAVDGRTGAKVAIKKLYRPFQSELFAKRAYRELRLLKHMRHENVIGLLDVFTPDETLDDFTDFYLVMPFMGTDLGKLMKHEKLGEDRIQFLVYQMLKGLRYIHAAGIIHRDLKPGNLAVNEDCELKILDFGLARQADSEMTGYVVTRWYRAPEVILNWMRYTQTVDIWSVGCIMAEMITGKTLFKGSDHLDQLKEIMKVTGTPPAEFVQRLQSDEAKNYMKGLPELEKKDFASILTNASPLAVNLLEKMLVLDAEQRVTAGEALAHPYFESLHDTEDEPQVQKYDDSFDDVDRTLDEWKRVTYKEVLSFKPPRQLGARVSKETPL

[19] = Cmax in Sprague-Dawley rat plasma at 0.03 mg/kg, IT measured after 0.8 hrs by LC/MS/MS analysis; format: ADME, organism-based; design: dose 0.03 mg/kg, time 0.8 hrs, route it
[20] = Cmax in Sprague-Dawley rat lung homogenate at 0.03 mg/kg, IT measured after 0.8 hrs by LC/MS/MS analysis; format: ADME, organism-based; design: time 0.8 hrs, dose 0.03 mg/kg, route it
[21] = target: Ephrin type-A receptor 4 (Homo sapiens) (UniProt P54764); experiment: Inhibition of EphA4 (unknown origin) at 1 uM relative to control
Chain of Ephrin type-A receptor 4 (Homo sapiens) (P54764 whole entry, the tested form may be a part): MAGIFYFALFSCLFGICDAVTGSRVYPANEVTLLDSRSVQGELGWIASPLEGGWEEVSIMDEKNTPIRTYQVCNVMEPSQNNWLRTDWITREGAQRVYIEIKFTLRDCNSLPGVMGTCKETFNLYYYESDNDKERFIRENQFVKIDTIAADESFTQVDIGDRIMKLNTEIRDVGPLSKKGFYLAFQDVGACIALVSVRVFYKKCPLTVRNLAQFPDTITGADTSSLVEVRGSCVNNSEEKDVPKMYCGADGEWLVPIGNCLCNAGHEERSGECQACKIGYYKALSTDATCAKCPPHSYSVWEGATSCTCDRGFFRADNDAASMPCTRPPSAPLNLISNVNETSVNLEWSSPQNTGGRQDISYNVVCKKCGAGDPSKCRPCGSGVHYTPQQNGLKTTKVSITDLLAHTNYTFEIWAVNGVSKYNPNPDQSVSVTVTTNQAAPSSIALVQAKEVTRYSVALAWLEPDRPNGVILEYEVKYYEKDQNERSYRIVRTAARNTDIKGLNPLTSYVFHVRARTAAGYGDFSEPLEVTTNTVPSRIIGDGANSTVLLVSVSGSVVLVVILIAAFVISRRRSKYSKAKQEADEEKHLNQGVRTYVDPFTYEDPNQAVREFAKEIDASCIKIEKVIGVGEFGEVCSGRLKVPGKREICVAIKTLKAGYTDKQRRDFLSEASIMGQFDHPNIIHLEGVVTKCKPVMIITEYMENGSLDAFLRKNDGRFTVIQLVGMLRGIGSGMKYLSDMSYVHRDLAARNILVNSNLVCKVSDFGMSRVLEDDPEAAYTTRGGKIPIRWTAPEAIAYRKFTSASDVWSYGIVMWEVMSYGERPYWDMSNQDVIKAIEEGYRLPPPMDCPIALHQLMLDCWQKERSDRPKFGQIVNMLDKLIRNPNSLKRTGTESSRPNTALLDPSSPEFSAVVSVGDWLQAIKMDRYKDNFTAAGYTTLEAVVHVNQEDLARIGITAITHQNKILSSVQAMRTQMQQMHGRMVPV

[22] = target: Epithelial discoidin domain-containing receptor 1 (Homo sapiens) (UniProt Q08345); experiment: Inhibition of human DDR1 at 100 nM by KINOMEscan assay relative to control
Chain of Epithelial discoidin domain-containing receptor 1 (Homo sapiens) (Q08345 whole entry, the tested form may be a part): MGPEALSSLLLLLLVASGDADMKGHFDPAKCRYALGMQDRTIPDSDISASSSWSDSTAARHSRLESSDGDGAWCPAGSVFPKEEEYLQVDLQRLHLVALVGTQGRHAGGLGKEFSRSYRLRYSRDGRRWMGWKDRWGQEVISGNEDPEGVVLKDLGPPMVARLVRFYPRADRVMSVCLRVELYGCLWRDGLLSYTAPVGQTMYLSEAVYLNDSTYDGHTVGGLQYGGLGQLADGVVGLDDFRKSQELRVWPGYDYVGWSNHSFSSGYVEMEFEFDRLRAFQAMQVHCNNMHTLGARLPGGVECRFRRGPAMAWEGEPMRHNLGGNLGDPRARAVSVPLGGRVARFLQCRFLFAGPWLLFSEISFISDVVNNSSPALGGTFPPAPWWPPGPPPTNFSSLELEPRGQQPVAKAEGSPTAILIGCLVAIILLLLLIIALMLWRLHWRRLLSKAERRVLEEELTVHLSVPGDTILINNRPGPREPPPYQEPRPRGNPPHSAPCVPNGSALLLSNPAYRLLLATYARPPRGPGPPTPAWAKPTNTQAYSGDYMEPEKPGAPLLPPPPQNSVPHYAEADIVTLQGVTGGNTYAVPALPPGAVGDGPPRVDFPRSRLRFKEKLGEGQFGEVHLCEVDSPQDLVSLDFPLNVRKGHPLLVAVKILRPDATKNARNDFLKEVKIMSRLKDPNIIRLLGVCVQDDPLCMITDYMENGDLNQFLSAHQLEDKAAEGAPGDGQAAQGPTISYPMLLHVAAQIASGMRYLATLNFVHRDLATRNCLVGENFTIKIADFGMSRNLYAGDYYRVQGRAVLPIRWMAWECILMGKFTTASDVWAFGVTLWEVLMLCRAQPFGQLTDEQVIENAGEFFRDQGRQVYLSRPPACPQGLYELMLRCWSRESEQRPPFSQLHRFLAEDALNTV

[23] = target: T4, Discoidin domain-containing receptor 2 (Homo sapiens) (UniProt Q16832); experiment: Inhibition of human DDR2 at 100 nM by KINOMEscan assay relative to control
T4 sequence (whole entry): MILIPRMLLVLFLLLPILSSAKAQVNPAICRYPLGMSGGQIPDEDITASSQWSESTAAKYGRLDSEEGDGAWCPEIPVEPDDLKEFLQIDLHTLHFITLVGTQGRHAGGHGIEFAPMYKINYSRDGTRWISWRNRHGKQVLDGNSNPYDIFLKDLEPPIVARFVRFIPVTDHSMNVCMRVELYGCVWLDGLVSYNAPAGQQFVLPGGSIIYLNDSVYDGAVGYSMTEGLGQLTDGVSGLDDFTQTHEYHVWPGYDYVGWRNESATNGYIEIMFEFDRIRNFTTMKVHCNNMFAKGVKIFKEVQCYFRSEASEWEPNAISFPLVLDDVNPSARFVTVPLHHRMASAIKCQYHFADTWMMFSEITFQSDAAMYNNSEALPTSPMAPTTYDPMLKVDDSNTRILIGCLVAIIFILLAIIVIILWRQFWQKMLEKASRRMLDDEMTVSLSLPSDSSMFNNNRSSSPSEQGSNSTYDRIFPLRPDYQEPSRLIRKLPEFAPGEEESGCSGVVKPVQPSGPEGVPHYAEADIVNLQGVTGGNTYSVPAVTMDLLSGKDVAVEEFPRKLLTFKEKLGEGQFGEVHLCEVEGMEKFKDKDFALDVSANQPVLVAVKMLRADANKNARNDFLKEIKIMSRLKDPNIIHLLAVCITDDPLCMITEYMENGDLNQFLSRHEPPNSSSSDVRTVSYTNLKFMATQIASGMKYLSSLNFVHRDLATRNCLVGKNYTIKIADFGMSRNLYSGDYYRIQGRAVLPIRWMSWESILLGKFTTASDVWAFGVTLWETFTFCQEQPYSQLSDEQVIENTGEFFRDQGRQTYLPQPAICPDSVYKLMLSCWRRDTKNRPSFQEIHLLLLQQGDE

[24] = target: TRAF2 and NCK-interacting protein kinase (Homo sapiens) (UniProt Q9UKE5); experiment: Inhibition of TNIK (unknown origin) at 100 nM by KINOMEscan assay relative to control
[25] = target: Citron Rho-interacting kinase (Homo sapiens) (UniProt O14578); experiment: Inhibition of human CIT at 100 nM by KINOMEscan assay relative to control
Chain of Citron Rho-interacting kinase (Homo sapiens) (O14578 whole entry): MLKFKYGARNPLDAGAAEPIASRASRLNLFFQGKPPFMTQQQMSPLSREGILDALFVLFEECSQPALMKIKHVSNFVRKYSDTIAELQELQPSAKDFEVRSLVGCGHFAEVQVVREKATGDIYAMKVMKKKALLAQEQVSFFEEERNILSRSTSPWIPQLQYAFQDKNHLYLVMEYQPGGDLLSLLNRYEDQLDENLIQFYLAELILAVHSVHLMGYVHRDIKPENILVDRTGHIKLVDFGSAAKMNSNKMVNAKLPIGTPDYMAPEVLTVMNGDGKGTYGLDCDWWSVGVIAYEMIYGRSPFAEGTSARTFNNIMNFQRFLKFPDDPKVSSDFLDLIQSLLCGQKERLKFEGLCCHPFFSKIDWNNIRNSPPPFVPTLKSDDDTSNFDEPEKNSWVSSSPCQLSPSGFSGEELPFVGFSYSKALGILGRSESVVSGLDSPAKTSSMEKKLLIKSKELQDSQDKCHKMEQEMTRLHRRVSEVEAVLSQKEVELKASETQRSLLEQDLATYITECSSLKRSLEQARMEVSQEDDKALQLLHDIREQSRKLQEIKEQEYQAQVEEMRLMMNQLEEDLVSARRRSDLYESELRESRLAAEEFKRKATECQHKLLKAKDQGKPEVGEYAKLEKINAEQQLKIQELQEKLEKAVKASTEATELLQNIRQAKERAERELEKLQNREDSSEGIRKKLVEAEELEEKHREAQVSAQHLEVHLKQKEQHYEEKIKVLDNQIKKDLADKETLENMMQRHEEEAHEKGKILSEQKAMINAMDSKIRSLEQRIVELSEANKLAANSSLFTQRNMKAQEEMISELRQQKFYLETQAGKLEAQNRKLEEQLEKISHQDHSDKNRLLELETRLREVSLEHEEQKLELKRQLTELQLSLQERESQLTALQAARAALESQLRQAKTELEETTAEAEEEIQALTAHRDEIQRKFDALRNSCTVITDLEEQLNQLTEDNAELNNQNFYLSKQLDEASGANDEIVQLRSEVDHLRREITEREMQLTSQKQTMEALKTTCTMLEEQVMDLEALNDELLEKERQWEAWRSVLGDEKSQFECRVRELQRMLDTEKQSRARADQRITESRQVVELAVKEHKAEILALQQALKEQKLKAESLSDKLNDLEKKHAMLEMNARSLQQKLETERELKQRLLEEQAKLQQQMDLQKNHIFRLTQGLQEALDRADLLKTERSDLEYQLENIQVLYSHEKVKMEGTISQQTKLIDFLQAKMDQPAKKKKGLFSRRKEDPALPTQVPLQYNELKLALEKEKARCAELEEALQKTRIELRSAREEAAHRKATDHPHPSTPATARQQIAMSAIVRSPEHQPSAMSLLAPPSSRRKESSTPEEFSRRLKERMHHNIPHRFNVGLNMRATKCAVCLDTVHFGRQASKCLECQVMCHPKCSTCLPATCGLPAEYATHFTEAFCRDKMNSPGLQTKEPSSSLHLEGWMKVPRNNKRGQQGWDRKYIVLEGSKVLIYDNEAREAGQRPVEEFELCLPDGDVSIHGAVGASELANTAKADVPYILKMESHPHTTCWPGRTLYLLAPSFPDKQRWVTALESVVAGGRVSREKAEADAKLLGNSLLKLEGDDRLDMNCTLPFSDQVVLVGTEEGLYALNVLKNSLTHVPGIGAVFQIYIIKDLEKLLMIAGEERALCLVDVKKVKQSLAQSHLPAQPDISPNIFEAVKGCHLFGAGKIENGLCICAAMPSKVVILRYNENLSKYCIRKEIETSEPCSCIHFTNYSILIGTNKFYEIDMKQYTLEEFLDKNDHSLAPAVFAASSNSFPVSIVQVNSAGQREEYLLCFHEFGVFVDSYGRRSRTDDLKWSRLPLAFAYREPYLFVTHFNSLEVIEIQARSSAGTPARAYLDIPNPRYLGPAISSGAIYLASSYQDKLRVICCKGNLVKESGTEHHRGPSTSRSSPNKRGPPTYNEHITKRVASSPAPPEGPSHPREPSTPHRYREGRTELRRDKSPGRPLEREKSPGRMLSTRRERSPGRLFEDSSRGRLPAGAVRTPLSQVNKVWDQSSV

[26] = target: T1, Mitogen-activated protein kinase 14; experiment: Binding affinity to biotinylated P38alpha assessed as dissociation half life by SPR analysis

Row | Compound | half-life at 1 µM [1] | IC50 [2] | IC50 [3] | IC50 [4] | solubility at 0.5 h [5] | Papp A→B at 1 h, 10 µM [6] | fraction unbound at 4 h, 10 µM [7] | fraction unbound at 4 h, 10 µM [8] | Drug uptake [10] | Drug uptake [11] | efflux ratio at 1 h, 10 µM [12] | concentration at 24 h [13] | T1/2 [16] | Ratio [9] | inhibition in vivo at 0.3 mg/kg (Rattus norvegicus) | other results
1 | Cc1ccc(-n2nc(C(C)(C)C)cc2NC(=O)N[C@H]2CC[C@@H](Oc3ccc4nnc(N5CCCCC5)n4c3)c3ccccc32)cc1 | < 0.167 h | 0.3 nM | 0.3 nM | > 10000 nM | 30 µg/mL (≈ 48.5 µM) | 2.5 ×10⁻⁶ cm/s | < 0.001 | 0.001 | 21% | 19% | > 2.5 | 12100 nM | > 16 h | 40 | 20% | IC50 [17]: 0.4 nM; IC50 [18]: 16 nM; Cmax [19]: 60 nM; Cmax [20]: 3180 nM
2 | CC(C)c1nnc2ccc(O[C@@H]3CC[C@H](NC(=O)Nc4cc(C(C)(C)C)nn4-c4cccc(OCCN(C)C)c4)c4ccccc43)cn12 |  | 0.8 nM | 9.1 nM |  |  |  |  |  |  |  |  |  | 0.89 h |  |  | 

Second part, led by results:

Row | half-life at 1 µM [1] | IC50 [2] | IC50 [3] | IC50 [4] | solubility at 0.5 h [5] | Papp A→B at 1 h, 10 µM [6] | fraction unbound at 4 h, 10 µM [7] | fraction unbound at 4 h, 10 µM [8] | Drug uptake [10] | Drug uptake [11] | efflux ratio at 1 h, 10 µM [12] | concentration at 24 h [13] | T1/2 [16] | Compound | Ratio [9] | inhibition in vivo at 0.3 mg/kg (Rattus norvegicus) | other results
3 | < 0.0833 h | 0.1 nM | 1 nM | 4100 nM | 800 µg/mL (≈ 1180 µM) | 1.2 ×10⁻⁶ cm/s | 0.014 | 0.005 | 7.2% | 1.7% | > 2.5 | 1400 nM |  | C[C@H]1CCCCN1c1nnc2ccc(O[C@@H]3CC[C@H](NC(=O)Nc4cc(C(C)(C)C)nn4-c4cnn(CCN(C)C)c4)c4ccccc43)cn12 [listing 1 of 2 here] | 70 | 56% | Cmax [14]: 3040 nM; Cmax [15]: 20 nM
4 |  |  |  |  |  |  |  |  |  |  |  |  | > 16 h | C[C@H]1CCCCN1c1nnc2ccc(O[C@@H]3CC[C@H](NC(=O)Nc4cc(C(C)(C)C)nn4-c4cnn(CCN(C)C)c4)c4ccccc43)cn12 [listing 2 of 2 here] |  |  | inhibition [21]: 82%; inhibition [22]: > 50%; inhibition [23]: > 50%; inhibition [24]: > 50%; inhibition [25]: > 50%; T1/2 [26]: 51 h
5 |  | 0.6 nM | 2.2 nM |  |  |  |  |  |  |  |  |  | 1.4 h | CN1CCN(Cc2ccc(-n3nc(C(C)(C)C)cc3NC(=O)N[C@H]3CC[C@@H](Oc4ccc5nnc(N6CCCCC6)n5c4)c4ccccc43)cc2)CC1 |  |  | 

— ChEMBL document CHEMBL5154908, “Design, Synthesis, and Biological Characterization of Inhaled p38α/β MAPK Inhibitors for the Treatment of Lung Inflammatory Diseases” (J Med Chem, 2022)
